Laboratory results from ChEMBL document CHEMBL2069166, “β-Lactones Inhibit N-acylethanolamine Acid Amidase by S-Acylation of the Catalytic N-Terminal Cysteine” (ACS Med Chem Lett, 2012).
Calls of active or inactive are those of the source. The calls are words filed in the database; no cut-off is given here.

How the values were obtained:
[1] = molecular target: T1, N-acylethanolamine-hydrolyzing acid amidase (Homo sapiens, UniProt Q02083); assay: Inhibition of human recombinant His6-tagged NAAA expressed in HEK293 cells using 10-cis-heptadecenoylethanolamide as substrate after 30 mins by UPLC/MS analysis
T1 sequence (Q02083 whole entry): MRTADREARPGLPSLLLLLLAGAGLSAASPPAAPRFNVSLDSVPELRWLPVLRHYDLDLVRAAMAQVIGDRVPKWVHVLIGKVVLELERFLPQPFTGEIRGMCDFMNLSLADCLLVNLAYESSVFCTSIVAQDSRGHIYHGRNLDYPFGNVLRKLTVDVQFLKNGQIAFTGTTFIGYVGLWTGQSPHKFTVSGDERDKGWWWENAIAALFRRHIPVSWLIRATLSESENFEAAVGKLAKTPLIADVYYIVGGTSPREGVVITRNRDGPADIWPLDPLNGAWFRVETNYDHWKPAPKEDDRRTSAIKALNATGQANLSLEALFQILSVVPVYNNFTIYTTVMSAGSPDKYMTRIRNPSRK

[2] = molecular target: T2, Fatty-acid amide hydrolase 1 (Rattus norvegicus) (UniProt P97612); assay: Inhibition of FAAH in rat brain homogenate using [3H]anandamide as substrate up to 30 uM after 30 mins by liquid scintillation counting; type: tissue-based
T2 sequence (whole entry): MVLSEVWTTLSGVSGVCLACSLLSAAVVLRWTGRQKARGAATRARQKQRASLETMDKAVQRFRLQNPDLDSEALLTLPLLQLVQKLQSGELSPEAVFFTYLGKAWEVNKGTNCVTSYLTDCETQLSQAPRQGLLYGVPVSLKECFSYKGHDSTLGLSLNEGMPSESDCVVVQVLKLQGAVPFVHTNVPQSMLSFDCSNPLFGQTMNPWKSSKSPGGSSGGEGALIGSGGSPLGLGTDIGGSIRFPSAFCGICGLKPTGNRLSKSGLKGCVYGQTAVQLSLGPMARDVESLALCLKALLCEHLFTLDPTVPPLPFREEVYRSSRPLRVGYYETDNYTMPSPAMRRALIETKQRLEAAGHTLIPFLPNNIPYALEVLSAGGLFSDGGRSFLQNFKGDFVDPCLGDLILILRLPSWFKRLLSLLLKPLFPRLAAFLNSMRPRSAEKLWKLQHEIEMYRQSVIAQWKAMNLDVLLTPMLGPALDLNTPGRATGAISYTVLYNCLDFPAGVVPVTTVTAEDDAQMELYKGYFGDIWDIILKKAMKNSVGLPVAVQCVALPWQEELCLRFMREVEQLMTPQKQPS

[3] = molecular target: T3, Acid ceramidase (Homo sapiens) (UniProt Q13510); assay: Inhibition of human acid ceramidase expressed in HEK293 cells up to 30 uM using N-lauroyl- ceramide substrate by UPLC/MS analysis; type: cell-based
T3 sequence (whole entry): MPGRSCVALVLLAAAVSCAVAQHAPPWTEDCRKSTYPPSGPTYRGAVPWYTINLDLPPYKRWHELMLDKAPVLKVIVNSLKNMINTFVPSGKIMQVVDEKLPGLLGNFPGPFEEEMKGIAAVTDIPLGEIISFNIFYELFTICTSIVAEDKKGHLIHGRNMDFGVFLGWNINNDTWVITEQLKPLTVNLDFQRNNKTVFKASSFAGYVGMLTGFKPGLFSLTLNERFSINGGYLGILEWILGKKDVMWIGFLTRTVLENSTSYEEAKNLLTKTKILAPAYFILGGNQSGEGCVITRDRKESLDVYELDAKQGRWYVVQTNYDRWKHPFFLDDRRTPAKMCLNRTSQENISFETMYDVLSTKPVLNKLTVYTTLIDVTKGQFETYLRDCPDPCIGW

[4] = molecular target: T4, N-acylethanolamine-hydrolyzing acid amidase (Homo sapiens) (UniProt Q02083); conditions: HEK293, 10 to 30 nM
T4 sequence (whole entry): T1 sequence (Q02083 whole entry)

[5] = molecular target: T4, N-acylethanolamine-hydrolyzing acid amidase (Homo sapiens); conditions: HEK293, 100 nM
[6] = molecular target: T4, N-acylethanolamine-hydrolyzing acid amidase (Homo sapiens); assay: Binding affinity to human recombinant His6-tagged NAAA expressed in HEK293 cells assessed as formation of peptide adduct by MS/MS […] analysis; type: cell-based

## C[C@@H]1OC(=O)[C@@H]1NC(=O)OCCCCCc1ccccc1
[1]
  IC50: 7.3 nM
[2]
  inhibition: inactive
[3]
  inhibition: inactive
[4]
  inhibition: Active
[5]
  inhibition: Active

## C[C@@H]1OC(=O)[C@@H]1NC(=O)CCCCCCc1ccccc1
[1]
  IC50: 314 nM
[6]
  Activity: Active
